The source of these data is patent US20250059170A1, “SOLID STATE FORMS OF AN FGFR INHIBITOR” (Kinnate Biopharma Inc., priority 2021, published 2025).

By solubility is commonly meant the concentration that dissolves in the medium under given conditions.

Holding throughout (type): physicochemical
Series [1] in a line: Preliminary solubility in 14 solvents by solvent addition with visual assessment. The conditions noted are these: thermodynamic from solid, RT. The text has this: Preliminary solubility of Compound 1 (Form V) was estimated in 14 selected solvents at RT using solvent addition method via visual assessment of samples.
Series [2] can be described thus: Water activity studies in IPA/water. As to the method: Water activity studies of Form I, II and V were also performed in IPA/water with different water content at RT and 50° C.
Series [3] is described as follows: Solid stability of Form II. The method, then: (§1) HPLC analysis was performed with an Agilent HPLC 1260 series instrument.
The solid stability of Form II was evaluated at 60° C. for 7 days, 40° C./75% RH for 6 days, and RT/92.5% RH for 2 days, respectively. […] The purity of Compound 1 decreased by about 0.3% at 60° C. for 3 days and 7 days, mainly due to the increase of the impurities at RRT 0.9, 0.91 and 1.07.

The nature of series [4]: Competitive slurry inter-conversion studies. As to conditions: competitive slurries in non-aqueous solvents, RT and 50° C. The method, then: Competitive slurries of Form I, II and V were performed in IPAC at RT and 50° C. […] A competitive slurry of Form III and Form II was conducted in IPA and IPAC at RT and 50° C., respectively, and all mixtures converted to Form II after 1 day. A competitive slurry of Form II and IX was also performed in IPA and IPAC at RT and 50° C. […] In IPA at RT and IPA and EA at RT and 50° C., all mixtures tended to convert to Form II.

Series [5] in a line: Solubility testing of Form II in SGF, water, FaSSIF and FeSSIF. As to conditions: for solubility: thermodynamic from solid. As to the method:
Nine crystal forms were identified, assigned as Form I-IX, including a mono-hydrate (Form I) four anhydrates (Form II, III, V and IX), a hemihydrate, (Form IV) and three solvates (Form VI, VII and VIII). […] The three solvates (Form VI, VII, and VIII) converted to Form II after desolvation and recrystallization during heating by DSC. Form II was evaluated by DVS, solubility and stability testing. […] The purity decreased by about 0.3% at 60° C. for 3 days and 7 days, mainly due to the increase of impurities at RRT 0.9, 0.91 and 1.07.
as §1

Series [6] in a line: Dynamic Vapor Sorption (DVS). As to the method: Moisture sorption/desorption data was collected on a DVS Intrinsic PLUS (SMS, UK). The sample was placed into a tared sample chamber and automatically weighed. The sample was dried at 40° C./0% RH until the dm/dt was less than 0.002% and cooled to 25° C.
Series [7] in a line: Solid form characterization summary (hygroscopicity comment). As to conditions: comment on solid form. The text has this:
A summary of the characterization data for the solid forms of Compound 1 identified is shown below in Table 15.

The structures appear in SMILES notation. ≈ marks a conversion by molar mass, not a printed value. Some results are limits rather than exact numbers.

Regarding `C=CC(=O)N1C[C@@H](n2nc(C#Cc3c(F)cc4c(ncn4C4CC4)c3F)c(C(N)=O)c2NC)C[C@@H]1COC` [Compound 1, 1-((3S,5R)-1-acryloyl-5-(methoxymethyl)pyrrolidin-3-yl)-3-((1-cyclopropyl-4,6-difluoro-1H-benzo[d]imidazol-5-yl)ethynyl)-5-(methylamino)-1H-pyrazole-4-carboxamide], the solubility in series [1] (organic solvent or mixture, ACN, Form V material, read-out: Solubility) was 27000 to 36000 µg/mL (≈ 51.6 to 68.8 mM); in series [1] (organic solvent or mixture, Acetone, Form V material, read-out: Solubility), roughly 34000 µg/mL (≈ 64.9 mM); in series [1] (organic solvent or mixture, EA, Form V material, read-out: Solubility) it was roughly 8000 µg/mL (≈ 15.3 mM); in series [1] (organic solvent or mixture, EtOH, Form V material, read-out: Solubility) it was roughly 21000 µg/mL (≈ 40.1 mM); in series [1] (organic solvent or mixture, IPA, Form V material, read-out: Solubility), roughly 5000 µg/mL (≈ 9.55 mM); in series [1] (organic solvent or mixture, IPAC, Form V material, read-out: Solubility) it was roughly 4000 µg/mL (≈ 7.64 mM). Besides, the solubility in series [1] (organic solvent or mixture, Isobutanol, Form V material, read-out: Solubility) was roughly 6000 µg/mL (≈ 11.5 mM); in series [1] (organic solvent or mixture, MEK, Form V material, read-out: Solubility), roughly 31000 µg/mL (≈ 59.2 mM); in series [1] (organic solvent or mixture, MTBE, Form V material, read-out: Solubility) it was less than 750 µg/mL; in series [1] (organic solvent or mixture, MeOH, Form V material, read-out: Solubility), greater than 106000 µg/mL; in series [1] (organic solvent or mixture, THF, Form V material, read-out: Solubility), greater than 100000 µg/mL; in series [1] (organic solvent or mixture, Toluene, Form V material, read-out: Solubility), less than 1000 µg/mL. Besides, the solubility in series [1] (organic solvent or mixture, n-Heptane, Form V material, read-out: Solubility) is less than 1000 µg/mL; in series [1] (Water, Form V material, read-out: Solubility), less than 1000 µg/mL.

On to `C=CC(=O)N1C[C@@H](n2nc(C#Cc3c(F)cc4c(ncn4C4CC4)c3F)c(C(N)=O)c2NC)C[C@@H]1COC` [Form I, 1-((3S,5R)-1-acryloyl-5-(methoxymethyl)pyrrolidin-3-yl)-3-((1-cyclopropyl-4,6-difluoro-1H-benzo[d]imidazol-5-yl)ethynyl)-5-(methylamino)-1H-pyrazole-4-carboxamide], for which the “Water activity (aw) at which Form I is more stable than Form II” value in series [2] (50° C.) was no less than 0.75; in series [2] (RT), no less than 0.55.

For the molecule `C=CC(=O)N1C[C@@H](n2nc(C#Cc3c(F)cc4c(ncn4C4CC4)c3F)c(C(N)=O)c2NC)C[C@@H]1COC` [Form II, 1-((3S,5R)-1-acryloyl-5-(methoxymethyl)pyrrolidin-3-yl)-3-((1-cyclopropyl-4,6-difluoro-1H-benzo[d]imidazol-5-yl)ethynyl)-5-(methylamino)-1H-pyrazole-4-carboxamide], the “Water activity (aw) at which the form is physically stable” value in series [2] (50° C.) is recorded as no more than 0.55; in series [2] (RT), no more than 0.35. The Solid stability entry was “physically and chemically stable” in series [3] (40° C./75% RH for 6 days); “physically stable” in series [3] (RT/92.5% RH for 2 days). The Purity decrease entry in series [3] (60° C. for 3 days and 7 days) was “about 0.3%”. For the same molecule, the “Relative stability of forms” value in series [4] is “most stable form in non-aqueous solvents”. In addition, the solubility in series [5] (SGF, simulated gastric fluid) was 800 µg/mL (≈ 1.53 mM); in series [5] (water), roughly 3 µg/mL (≈ 0.00573 mM). Also, the “Solubility in FeSSIF relative to FaSSIF” value in series [5] (at 24 h) was “about thirty times higher”. The Hygroscopicity entry in series [6] (DVS) is recorded as “slightly hygroscopic”. Further, in series [6] (after DVS testing), the “Crystal form after DVS testing” value is on record as “remained unchanged”.

On to `C=CC(=O)N1C[C@@H](n2nc(C#Cc3c(F)cc4c(ncn4C4CC4)c3F)c(C(N)=O)c2NC)C[C@@H]1COC` [Form III, 1-((3S,5R)-1-acryloyl-5-(methoxymethyl)pyrrolidin-3-yl)-3-((1-cyclopropyl-4,6-difluoro-1H-benzo[d]imidazol-5-yl)ethynyl)-5-(methylamino)-1H-pyrazole-4-carboxamide], for which the Hygroscopicity entry in series [7] is “Hygroscopic”.

With `C=CC(=O)N1C[C@@H](n2nc(C#Cc3c(F)cc4c(ncn4C4CC4)c3F)c(C(N)=O)c2NC)C[C@@H]1COC` [Form V, 1-((3S,5R)-1-acryloyl-5-(methoxymethyl)pyrrolidin-3-yl)-3-((1-cyclopropyl-4,6-difluoro-1H-benzo[d]imidazol-5-yl)ethynyl)-5-(methylamino)-1H-pyrazole-4-carboxamide], the solubility in series [1] (organic solvent or mixture, MeOH, THF, acetone, MEK and ACN, read-out: Solubility (relatively high)) was greater than 20000 µg/mL; in series [1] (non-polar solvents and water, read-out: Solubility (practically insoluble)), less than 1000 µg/mL.
